Experimental findings from ChEMBL document CHEMBL5096208, “Installation of Pargyline, a LSD1 Inhibitor, in the HDAC Inhibitory Template Culminated in the Identification of a Tractable Antiprostate Cancer Agent” (J Med Chem, 2021) are described below.

As a reminder, the GI50 is the concentration at which growth is held to half of that of the control.

The subject of data set [1] is PC-3. Description: Antiproliferative activity against human PC-3 cells assessed as cell growth inhibition incubated for 48 hrs by MTT assay. The data set is classed as functional. (Tetrazolium assays rely on reduction of a dye to a coloured formazan, in cell work by metabolically active cells.)
The subject of data set [2] is DU-145. Description: Antiproliferative activity against human DU-145 cells assessed as cell growth inhibition incubated for 48 hrs by MTT assay. The data set is classed as functional.
The subject of data set [3] is PC-3. The experiment in a line: Antitumor activity against human PC-3 cells xenografted in athymic nude mouse assessed as tumor growth inhibition at 20 mg/kg, ip administered every 4 days for 4 doses and measured upto 25 days by caliper method relative to control. In kind it is functional. The conditions noted are these: PC-3, 600 h, time <= 25 day, read-out: TGI. A general note: In xenograft studies the graft and the host belong to different species.

For data set [4], the system named is DU-145. Description: Antitumor activity against human DU-145 cells xenografted in athymic nude mouse assessed as tumor growth inhibition at 20 mg/kg, ip administered every 4 days for 5 doses and measured upto 60 days by caliper method relative to control. The data set is classed as functional. Particulars: DU-145, 1440 h, time <= 60 day, read-out: TGI.
Data set [5] can be described thus: Toxicity in athymic nude mouse xenografted with human PC-3 cells assessed as change in body weight at 20 mg/kg, ip administered every 4 days for 4 doses and measured upto 25 days. Particulars: in vivo, 600 h, time < 25 day. The data set is classed as organism-based.
Data set [6] is described as follows: Toxicity in athymic nude mouse xenografted with human PC-3 cells assessed as change in body weight at 50 to 100 mg/kg, po qd measured upto 25 days. In kind it is organism-based. The conditions noted are these: in vivo, 600 h, dose 50-100 mg/kg, time < 25 day.
Data set [7] in a line: Toxicity in athymic nude mouse xenografted with human DU-145 cells assessed as change in body weight at 20 mg/kg, ip administered every 4 days for 5 doses and measured upto 60 days. The data set is classed as organism-based. Particulars: in vivo, 1440 h, time < 60 day.
The nature of data set [8]: Toxicity in athymic nude mouse xenografted with human DU-145 cells assessed as change in body weight at 50 mg/kg, po qd measured upto 60 days. The data set is classed as organism-based. The conditions noted are these: in vivo, 1440 h, time < 60 day.
A short description of data set [9]: Toxicity in athymic nude mouse xenografted with human DU-145 cells assessed as change in body weight at 100 to 200 mg/kg, po administered every 2 days and measured upto 60 days. In kind it is organism-based. The conditions noted are these: in vivo, 1440 h, dose 100-200 mg/kg, time < 60 day.
For data set [10], the system named is PC-3. The experiment in a line: Antiproliferative activity against human PC-3 cells assessed as cell growth inhibition at upto 10 uM. The conditions noted are these: time 48.0 hrs. In kind it is functional, cell-based.

Calls of active or inactive are those of the source. The rule behind the calls is not given here.

With `C#CCN(C)Cc1cccc(NCc2ccc(C(=O)NO)cc2)c1`, the GI50 in the data set on PC-3 [1] and in the data set on DU-145 [2] was more than 10 µM each time.

With `C#CCN(C)Cc1cccc(NC(=O)CCCCC(=O)NO)c1`, the GI50 in the data set with PC-3 [1] is 5.15 µM; in the data set with DU-145 [2], 9.75 µM.

As for `C#CCN(C)Cc1ccc(NC(=O)CCCCC(=O)NO)cc1`, the GI50 in the data set with PC-3 [1] and in the data set on DU-145 [2] was more than 10 µM throughout.

Regarding `C#CCN(C)Cc1ccc(NC(=O)CCCCCCCC(=O)NO)cc1`, the GI50 with PC-3 [1] was 7.16 µM; in the data set on DU-145 [2] it was 3.4 µM.

Consider `C[C@]12CC[C@H](O)CC1=CC[C@@H]1[C@@H]2CC[C@]2(C)C(c3cccnc3)=CC[C@@H]12` [ABIRATERONE], for which the GI50 in the data set with PC-3 [1] and in the data set on DU-145 [2] was more than 10 µM each time.

As to `C#CCN(C)Cc1ccc(NC(=O)CCCCCC(=O)NO)cc1`, the GI50 in the data set with PC-3 [1] and in the data set with DU-145 [2] was more than 10 µM throughout.

For the compound `C#CCN(C)Cc1ccc(NC(=O)CCCCCCCCC(=O)NO)cc1`, the 50% growth inhibitory concentration (GI50) was 4.26 µM in the data set with PC-3 [1] and 2.74 µM in the data set with DU-145 [2].

For the compound `CC(=O)O[C@H]1C(=O)[C@@]2(C)[C@H]([C@H](OC(=O)c3ccccc3)[C@]3(O)C[C@H](OC(=O)[C@H](O)[C@@H](NC(=O)c4ccccc4)c4ccccc4)C(C)=C1C3(C)C)[C@]1(OC(C)=O)CO[C@@H]1C[C@@H]2O` [PACLITAXEL], the results for the inhibition in vivo at 20 mg/kg in the data set on PC-3 [3] and with DU-145 [4] were 47.8% and 47%, respectively. Further, the Activity entry in data set [5], in data set [6], in data set [7], in [8] and in [9] was “Non-Toxic” throughout.

As for `Nc1ccccc1NC(=O)c1ccc(CCCC(=O)Nc2ccc([C@H]3C[C@@H]3N)cc2)cc1`, the result with PC-3 [10] was Active.

Turning to `CNC(=O)c1ccc(N2C(=S)N(c3ccc(C#N)c(C(F)(F)F)c3)C(=O)C2(C)C)cc1F` [ENZALUTAMIDE], the GI50 in the data set with PC-3 [1] and in the data set on DU-145 [2] was more than 10 µM throughout.

Consider `C#CCN(C)Cc1cccc(NC(=O)CCCCCCCCC(=O)NO)c1`, for which the GI50 with PC-3 [1] stood at 1.79 µM; with DU-145 [2], 2.94 µM.

Take `C#CCN(C)Cc1cccc(NC(=O)CCCCCC(=O)NO)c1`: the results for the GI50 with PC-3 [1] and in the data set on DU-145 [2] were 4.63 µM and 4.29 µM, respectively.

`C#CCN(C)Cc1ccc(NCc2ccc(C(=O)NO)cc2)cc1`: the GI50 in the data set on PC-3 [1] and in the data set on DU-145 [2] was more than 10 µM throughout.

On to `C#CCN(C)Cc1ccc(NC(=O)CCC(=O)NO)cc1`, for which the GI50 in the data set on PC-3 [1] and in the data set on DU-145 [2] was more than 10 µM in each case.

Consider `C#CCN(C)Cc1cccc(NC(=O)CCC(=O)NO)c1`, for which the GI50 with PC-3 [1] and in the data set with DU-145 [2] was more than 10 µM in each case.

On to `C#CCN(C)Cc1cccc(NCc2ccc(/C=C/C(=O)NO)cc2)c1`, for which the figures for the GI50 with PC-3 [1] and with DU-145 [2] were 0.85 µM and 0.54 µM, respectively.

For `C#CCN(C)Cc1ccc(NCc2ccc(/C=C/C(=O)NO)cc2)cc1`, the GI50 in the data set on PC-3 [1] stood at 0.75 µM; with DU-145 [2], 0.56 µM.

Regarding `Cn1cc(-c2ccc(S(=O)(=O)n3ccc(/C=C/C(=O)Nc4ccccc4N)c3)cc2)cn1`, the result with PC-3 [10] was Active.

On to `C#CCN(C)Cc1cccc(NS(=O)(=O)c2ccc(/C=C/C(=O)NO)cc2)c1`, for which the values for the GI50 with PC-3 [1] and with DU-145 [2] were 2.23 µM and 2.35 µM, respectively.

On to `C#CCN(C)Cc1cccc(NC(=O)CCCC(=O)NO)c1`, for which the GI50 in the data set on PC-3 [1] and in the data set on DU-145 [2] was more than 10 µM in each case.

As for `C#CCN(C)Cc1ccc(NS(=O)(=O)c2ccc(/C=C/C(=O)NO)cc2)cc1`, the 50% growth inhibitory concentration (GI50) in the data set with PC-3 [1] stood at 0.71 µM; in the data set on DU-145 [2], 0.96 µM.

On to `C#CCN(C)Cc1ccc(NC(=O)CCCCCCC(=O)NO)cc1`, for which the GI50 in the data set on PC-3 [1] came out at 2.28 µM; in the data set with DU-145 [2] it was 1.51 µM.

On to `C#CCN(C)Cc1cccc(NS(=O)(=O)c2cccc(/C=C/C(=O)NO)c2)c1`, for which the concentration for 50% growth inhibition (GI50) in the data set with PC-3 [1] was found to be 1.23 µM; in the data set on DU-145 [2], 0.21 µM.

As for `C#CCN(C)Cc1cccc(NC(=O)CCCCCCCC(=O)NO)c1`, the GI50 with PC-3 [1] came to 4.07 µM; in the data set on DU-145 [2], 3.78 µM.

For `C#CCN(C)Cc1ccccc1` [PARGYLINE], the GI50 in the data set with PC-3 [1] turned out to be 197 µM; in the data set with DU-145 [2], 219 µM.

With `C#CCN(C)Cc1ccc(NC(=O)CCCC(=O)NO)cc1`, the GI50 in the data set with PC-3 [1] and with DU-145 [2] was more than 10 µM throughout.

Consider `C#CCN(C)Cc1ccc(NS(=O)(=O)c2cccc(/C=C/C(=O)NO)c2)cc1`, for which the results for the GI50 with PC-3 [1] and with DU-145 [2] were 0.367 µM and 0.21 µM, respectively.
